Measured values as given in article PMC4198181, “Gold(I) Complexes of 9-Deazahypoxanthine as Selective Antitumor and Anti-Inflammatory Agents” (PLoS ONE, 2014).

Legend:
[1] = test system: HOS osteosarcoma cells; assay: MTT in vitro cytotoxicity, HOS; assay type: cell-based, human; conditions: 24 h treatment, read-out: IC50±S.E., HOS
Procedure: (§1) In vitro cytotoxic activity was determined by the MTT assay in human breast adenocarcinoma (MCF7; ECACC no. 86012803), human osteosarcoma (HOS; ECACC no. 87070202), lung carcinoma (A549; ECACC no. 86012804), malignant melanoma (G361; ECACC no. 88030401), cervix epitheloid carcinoma (HeLa; ECACC no. 93021013), ovarian carcinoma (A2780; ECACC no. 93112519), cisplatin-resistant ovarian carcinoma (A2780R; […] ECACC no 105092802) cancer cell lines, purchased from European Collection of Cell Cultures (ECACC). […] The primary culture of human hepatocytes (HEP220, batch number HEP220819) was obtained from Biopredic International (France). The culture medium was Williams and HAM's F-12 (1∶1) supplemented with penicillin, streptomycin, ascorbic acid, linoleic acid, holo-transferin, ethanolamine, glucagon, insulin, dexamethasone, pyruvate, glucose, glutamine, amphotericin. The medium was enriched for plating with 2% foetal calf serum (v/v). The medium was exchanged for a serum-free medium the day after and the culture was stabilized for additional 24 h. Thereafter, the cells were ready for treatments. […] The MTT assay was performed spectrophotometrically at 540 nm (TECAN, Schoeller Instruments LLC). The cytotoxicity data were expressed as the percentage of viability, where 100% represented the treatments with vehicle (0.1% DMF or 0.1% DMSO). The cytotoxicity data from the cancer cell lines were acquired from three independent experiments (conducted in triplicate) using cells from different passages. The IC50 values were calculated from viability curves. The results are presented as arithmetic means±standard error of the mean (S.E.).

[2] = test system: 22Rv1 prostate carcinoma cells; assay: MTT in vitro cytotoxicity, 22Rv1; assay type: cell-based, human; conditions: 24 h treatment, read-out: IC50±S.E., 22Rv1
Procedure: as §1

[3] = test system: G361 malignant melanoma cells; assay: MTT in vitro cytotoxicity, G361; assay type: cell-based, human; conditions: 24 h treatment, read-out: IC50±S.E., G361
Procedure: as §1

[4] = test system: HeLa cervix epitheloid carcinoma cells; assay: MTT in vitro cytotoxicity, HeLa; assay type: cell-based, human; conditions: 24 h treatment, read-out: IC50±S.E., HeLa
Procedure: as §1

[5] = Interactions with L-cysteine and reduced glutathione by ESI+ MS; assay type: physicochemical; conditions: 20 µM complex, 290 µM cysteine, 6 µM glutathione, methanol/water 1:1
Procedure: The interactions of selected gold(I) complexes 2 and 4, involving the isopropyloxy and benzyloxy substituent on C6 of 9-deazapurine, with the sulfur-containing biomolecules (i.e. L-cysteine and reduced glutathione) were studied by ESI+ mass spectrometry (ESI+ MS). The experiments were carried out using a Thermo Scientific LTQ Fleet Ion-Trap mass spectrometer, in positive ionization mode. The reactions of the representative complexes 2 and 4 were performed in methanol/water mixture (1∶1, v/v) containing the physiological concentrations of L-cysteine and glutathione (at the final concentrations of 290 µM, and 6 µM [63], respectively). The reference system consisted of the solutions of complexes (20 µM) in methanol/water mixture (1∶1, v/v). The flow injection analysis (FIA) method was utilized to introduce the reaction system (5 µL spikes) into the mass spectrometer and pure acetonitrile was used as a mobile phase. The ESI-source was set-up as follows: source voltage (5 kV), the vaporizer temperature (160°C), the capillary temperature (250°C), the sheath gas flow (30 L/min), and auxiliary gas flow rate (10 L/min). The system was calibrated as stated in the manufactured specifications and no further tuning was needed.

[6] = test system: primary culture of human hepatocytes (HEP220); assay: MTT in vitro cytotoxicity, primary human hepatocytes; assay type: cell-based; conditions: for IC50: 24 h treatment, MTT, read-out: IC50±S.E., HEP220 (healthy human hepatocytes)
Procedure: as §1

[7] = test system: human cancer cell lines (MCF7, HOS, A549, G361, HeLa, A2780, A2780R, 22Rv1); assay: MTT in vitro cytotoxicity, summary over the panel of human cancer cell lines; assay type: cell-based; conditions: on the MCF7 and HOS cell lines
Procedure: In vitro cytotoxic activity was determined by the MTT assay in human breast adenocarcinoma (MCF7; ECACC no. 86012803), human osteosarcoma (HOS; ECACC no. 87070202), lung carcinoma (A549; ECACC no. 86012804), malignant melanoma (G361; ECACC no. 88030401), cervix epitheloid carcinoma (HeLa; ECACC no. 93021013), ovarian carcinoma (A2780; ECACC no. 93112519), cisplatin-resistant ovarian carcinoma (A2780R; ECACC no. 93112517) and prostate carcinoma (22Rv1; ECACC no 105092802) cancer cell lines, purchased from European Collection of Cell Cultures (ECACC). The cells were cultured according to the ECACC instructions and they were maintained at 37°C and 5% CO2 in a humidified incubator. The primary culture of human hepatocytes (HEP220, batch number HEP220819) was obtained from Biopredic International (France). The culture medium was Williams and HAM's F-12 (1∶1) supplemented with penicillin, streptomycin, ascorbic acid, linoleic acid, holo-transferin, ethanolamine, glucagon, insulin, dexamethasone, pyruvate, glucose, glutamine, amphotericin. The medium was enriched for plating with 2% foetal calf serum (v/v). The medium was exchanged for a serum-free medium the day after and the culture was stabilized for additional 24 h. Thereafter, the cells were ready for treatments. The cultures were maintained at 37°C and 5% CO2 in a humidified incubator. The cells were treated with complexes 1–5 (at the concentration levels of 0.01, 0.1, 1.0, 5.0, 25.0, and 50.0 µM), starting compounds e.g. HL1–5, AuCl, and cisplatin (applied up to 50 µM) for 24 h, using multi-well culture plates of 96 wells. […]
The cytotoxicity data were expressed as the percentage of viability, where 100% represented the treatments with vehicle (0.1% DMF or 0.1% DMSO). […] The IC50 values were calculated from viability curves. […] The significance of the differences between the results was assessed by the ANOVA analysis with p<0.05 considered to be significant (QC Expert 3.2, Statistical software, TriloByte Ltd., Pardubice, Czech Republic).

Compound	IC50 [1]	IC50 [2]	IC50 [3]	IC50 [4]	time within which interaction intermediates with cysteine/glutathione were detected (N-ligand exchange) [5]	IC50 [6]	times lower cytotoxicity against healthy human cells (HEP220) than cancer cell lines ([6]; complex 2: MCF7 vs. HEP220)	times more efficient than cisplatin [7]
CC(C)Oc1ncnc2cc[n]([Au])c12.c1ccc(P(c2ccccc2)c2ccccc2)cc1 [complex 2, [Au(L2)(PPh3)]]	0.9 ± 0.2 µM	4 ± 0.1 µM	3.4 ± 0.1 µM	16 ± 0.2 µM	≤ 1 h	18.5 ± 1.5 µM	~30 times	at least 20 times
[Au][n]1ccc2ncnc(OCCc3ccccc3)c21.c1ccc(P(c2ccccc2)c2ccccc2)cc1 [complex 5]	2.9 ± 0.1 µM	3.7 ± 0.1 µM	3.5 ± 0.2 µM	22.8 ± 0.5 µM	–	19 ± 1.8 µM	–	–
